Source: BindingDB's records for doi:10.1021/jm000271k (Parke-Davis Pharmaceutical Research, 2000)
pIC50: −log10 of the molar value.

What follows are compounds tested against Cyclin-dependent kinase 4/G1/S-specific cyclin-D1 [L188C] (Homo sapiens, UniProt P11802) (assay: CDKs Assay). Conditions: not given.
Method: The enzyme was assayed with substrate GST- retinoblastoma in the presence of 25 uM ATP/[gamma-32P] ATP. IC50 is the inhibitor concentration, which inhibits 50% of enzyme activity that catalyzes the transfer of the terminal phosphate from [gamma-32P] labeled ATP to GST- retinoblastoma. Use of 32P-labeled ATP allows this transfer to be monitored by scintillation counting.

SMILES	pIC50
CC(C)n1c(=O)ccc2cnc(Nc3ccc(N4CCN(C)CC4)cc3)nc21 [8-Isopropyl-2-[4-(4-methylpiperazin-1-yl)phenylamino]-8H-pyrido[2,3-d]pyrimidin-7-one]	7.49
CCn1c(=O)ccc2cnc(Nc3ccc(N4CCOCC4)cc3)nc21 [8-Ethyl-2-(4-(morpholin-4-yl)phenylamino)-8H-pyrido[2,3-d]pyrimidin-7-one]	6.52
CCN(CC)CCOc1ccc(Nc2ncc3ccc(=O)n(C(C)C)c3n2)cc1 [2-({4-[2-(diethylamino)ethoxy]phenyl}amino)-8-(propan-2-yl)-7H,8H-pyrido[2,3-d]pyrimidin-7-one]	7.35
CCn1c(=O)ccc2cnc(Nc3ccc(N4CCN(C)CC4)cc3)nc21 [8-Ethyl-2-[4-(4-methylpiperazin-1-yl)phenylamino]-8H-pyrido[2,3-d]pyrimidin-7-one]	7.07

Second part, the compound after the results:

pIC50	SMILES
6.68	O=c1ccc2cnc(Nc3ccccc3)nc2n1C1CCCC1 [8-cyclopentyl-2-(phenylamino)-7H,8H-pyrido[2,3-d]pyrimidin-7-one]
7.42	O=c1ccc2cnc(Nc3ccccc3)nc2n1C1CC2CCC1C2 (configuration not stated) [8-Bicyclo[2.2.1]hept-2-yl-2-phenylamino-8H-pyrido[2,3-d]pyrimidin-7-one]
5.30	O=c1ccc2cnc(Nc3ccccc3)nc2n1CC1CO1 (configuration not stated) [8-Oxiranylmethyl-2-phenylamino-8H-pyrido[2,3-d]pyrimidin-7-one]
5.83	CCCCn1c(=O)ccc2cnc(Nc3ccccc3)nc21 [8-Butyl-2-phenylamino-8H-pyrido[2,3-d]pyrimidin-7-one]
6.26	CCCn1c(=O)ccc2cnc(Nc3ccccc3)nc21 [2-(phenylamino)-8-propyl-7H,8H-pyrido[2,3-d]pyrimidin-7-one]
5.26	Cn1c(=O)ccc2cnc(Nc3ccccc3)nc21 [8-Methyl-2-phenylamino-8H-pyrido[2,3-d]pyrimidin-7-one]
6.74	O=c1ccc2cnc(Nc3ccccc3)nc2n1C1CCCCCC1 [8-cycloheptyl-2-(phenylamino)-7H,8H-pyrido[2,3-d]pyrimidin-7-one]
6.03	O=c1ccc2cnc(Nc3ccccc3)nc2n1Cc1ccccc1 [8-benzyl-2-(phenylamino)-7H,8H-pyrido[2,3-d]pyrimidin-7-one]
7.33	O=c1ccc2cnc(Nc3ccccc3)nc2n1C1CCCCC1 [8-Cyclohexyl-2-phenylamino-8H-pyrido[2,3-d]pyrimidin-7-one]

Same assay, conditions: pH 7.4; 25 °C

pIC50	SMILES
5.28	CCn1c(=O)ccc2cnc(NC(C)(C)C)nc21 [2-(tert-butylamino)-8-ethyl-7H,8H-pyrido[2,3-d]pyrimidin-7-one]
6.80	CCN(CC)CCOc1ccc(Nc2ncc3ccc(=O)n(CC)c3n2)cc1 [2-({4-[2-(diethylamino)ethoxy]phenyl}amino)-8-ethyl-7H,8H-pyrido[2,3-d]pyrimidin-7-one]
5.11	CCn1c(=O)ccc2cnc(Nc3cccc(OC(F)(F)C(F)F)c3)nc21 [8-Ethyl-2-[3-(1,1,2,2-tetrafluoroethoxy)phenylamino]-8H-pyrido[2,3-d]pyrimidin-7-one]
4.92	CCNc1ncc2ccc(=O)n(CC)c2n1 [8-ethyl-2-(ethylamino)-7H,8H-pyrido[2,3-d]pyrimidin-7-one]
6.22	CCn1c(=O)ccc2cnc(Nc3ccc(OC)cc3)nc21 [8-ethyl-2-[(4-methoxyphenyl)amino]-7H,8H-pyrido[2,3-d]pyrimidin-7-one]
5.48	CCn1c(=O)ccc2cnc(NC3CCCCC3)nc21 [2-Cyclohexylamino-8-ethyl-8H-pyrido[2,3-d]pyrimidin-7-one]
5.85	CCn1c(=O)ccc2cnc(Nc3cccc(F)c3)nc21 [8-Ethyl-2-(3-fluorophenylamino)-8H-pyrido[2,3-d]pyrimidin-7-one]
5.91	CCn1c(=O)ccc2cnc(Nc3ccc(F)cc3)nc21 [8-ethyl-2-[(4-fluorophenyl)amino]-7H,8H-pyrido[2,3-d]pyrimidin-7-one]
6.48	CCn1c(=O)ccc2cnc(Nc3ccc(N(C)C)cc3)nc21 [2-{[4-(dimethylamino)phenyl]amino}-8-ethyl-7H,8H-pyrido[2,3-d]pyrimidin-7-one]
